# Measurements as given in patent US20100003326A1, “DRUG DELIVERY DEVICE COMPRISING A PHARMACEUTICALLY OR BIOLOGICALLY ACTIVE COMPONENT AND AN INFRARED ABSORBING COMPOUND” (DOLPHYS TECHNOLOGIES B.V., priority 2006, published 2010).
# Assays:
# [1] = Infrared-triggered release of ibuprofen from P(BMA-MMA) disc in physiological buffer; assay type: physicochemical; settings: physiological buffer at 30° C.; for speed of release of ibuprofen from the disc: P(BMA-MMA) disc, 290 ppm Lumogen IR 788, 5 wt % ibuprofen
# Procedure: An object consisting of a pressed circular disc with a diameter of 2.5 cm and thickness of 2 mm was placed in a holder in a vessel completely containing 90 mL physiological buffer at 30° C. […] Addition of ibuprofen led to a lowering of the Tg to about 35° C. The disc was irradiated perpendicularly to the surface with the same laser diode module as in Example 1a, the laser power being 750 mW and the distance between fiber exit and disc 50 mm. The water layer between sample and disc was approximately 20 mm. A glass lid was placed on the vessel to prevent water evaporation. The vessel was completely filled with water, thus avoiding reflection and refraction effects at an additional air/water interface. The near-infrared irradiation only encountered an air to glass and a glass to water transition. Irradiation was applied in an alternating manner, periods of irradiation of 4 hours being alternated by periods of 20 hours without irradiation.
# [2] = Ibuprofen blood plasma concentration after infrared triggering of subcutaneous strand in rat; assay type: in vivo; settings: sc; for concentration at 1 day: first time; for concentration at 2 day: second time (next day)
# Procedure: An object consisting of a compounded strand with a diameter of 2.0 mm and a length of 2.0 cm. […] Addition of ibuprofen led to a lowering of the Tg to about −1° C.
# The strand was placed subcutaneously in a rat. After 1 day, the strand was irradiated perpendicularly to the length axis with the same laser diode module as in Example 1a, for 15 minutes, the laser power set at 750 mW and the distance between fiber exit and the skin of the rat being 20 mm. The next day this procedure was repeated again.
# Blood samples were taken before, during and after triggering on both days. As a consequence of irradiation, the concentration of ibuprofen in the blood plasma increased the first time from below 5 ng/ml (no detection peak of LC-MS/MS was found) to 25 ng/ml and the second time from below 5 ng/ml (no peak was found) to 19 ng/ml.
# [3] = subcutaneous strand with 40 wt % ibuprofen, as a consequence of 15 minutes irradiation at 750 mW
compound,measurement,setting,value
CC(C)Cc1ccc(C(C)C(=O)O)cc1 (stereo not shown) [ibuprofen],release of ibuprofen after stopping irradiation,"[1]; after stopping irradiation, same disc",fell virtually immediately to the base value
same,speed of release of ibuprofen from the disc,"[1]; during irradiation (785 nm laser, 750 mW, 4 hours periods)",around 3.9×10^−6 g/h
same,speed of release of ibuprofen from the disc,[1]; without irradiation (base value),less than 1×10^−6 g/h
same,concentration at 1 day,"[2]; subcutaneous poly(L,DL-Lactide) strand with 40 wt % ibuprofen, before irradiation, LC-MS/MS",< 5 ng/mL
same,concentration at 1 day,[2]; [3],25 ng/mL
same,concentration at 2 day,[2]; [3],19 ng/mL
same,concentration at 2 day,"[2]; subcutaneous strand with 40 wt % ibuprofen, before irradiation, LC-MS/MS",< 5 ng/mL
